# Entries after “also recorded” stand apart in the source; their conditions may differ.
# Columns and labels:
# neuromuscular AChR = settings: cited from earlier work
# [1] = tested on: brain and plasma AChE and BChE; settings: cited from earlier work
# plasma AChE = assay type: in vivo, Fischer-344 rats
# [2] = in vivo; cited from earlier work
# [3] = tested on: patients with Alzheimer's disease; settings: human, in vivo; cited from earlier work
# [4] = tested on: scopolamine-induced impairment in learning performance of rats; set-up: species or system male Fischer-344 rats; settings: rat, in vivo
# acetylcholine in brain = settings: in vivo; cited from earlier work
# [5] = tested on: scopolamine-induced impairment in learning performance of rats; settings: rat, in vivo; cited from earlier work
# cholinesterase = settings: cited from earlier work
# [6] = tested on: performance deficits induced by scopolamine; settings: in vivo; cited from earlier work
# [7] = tested on: memory consolidation in mice; settings: mouse, in vivo; cited from earlier work
# [8] = target: human acetylcholinesterase (AChE); settings: read-out: IC50 against human AChE; cited from earlier work
# [9] = rat, in vivo
# [10] = target: human butyrylcholinesterase (BChE); settings: read-out: IC50 against human BChE; cited from earlier work
# [11] = tested on: human acetylcholinesterase (AChE); assay type: biochemical
# [12] = in vivo
# cholinesterase (ChE) = settings: cited from earlier work
structure (smiles),measurement,setting,value
CNC(=O)Oc1ccc2c(c1)[C@]1(C)CCN(C)[C@@H]1N2C [Physostigmine],properties at the neuromuscular AChR,neuromuscular AChR,blocking properties as well as agonist properties
same,IC50 of brain vs plasma AChE and BChE,[1],similar
same,AChE inhibition at 60 minutes,"plasma AChE; rat, in vivo",negligible
same,"AChE inhibition, immediate","plasma AChE; rat, in vivo",approximately 50%
same,LD50,[2],0.6 mg/kg
same,pharmacological half life in patients,[3],short pharmacological half life
same,"activity in 14-unit T-maze model, in words",[4],no significant activity in this model
"CN1[C@@H]2C[C@@H](OC(=O)[C@H](CO)c3ccccc3)C[C@H]1[C@@H]1O[C@@H]12 [SCOP, reference compound]",all five measures of the maze task,[4],significantly worse performance in all five measures of the maze task
CCCCCCCNC(=O)Oc1ccc2c(c1)[C@]1(C)CCN(C)[C@@H]1N2C [heptyl-Phy],increases in acetylcholine in brain vs parent compound,acetylcholine in brain,more persistent increases in acetylcholine in brain
same,alternation error performance,[5],lack of improvement
same,learning impairment of SCOP-treated rats,[5],failed to ameliorate the learning impairment
same,number of errors,[5],significantly reduced the number of errors
same,scopolamine-induced learning impairment of rats,[5],attenuated the scopolamine-induced learning impairment
same,toxicity vs parent compound,[2],less toxicity than the parent compound
same,inhibitory action on cholinesterase vs parent compound,cholinesterase,longer inhibitory action on cholinesterase
same,performance deficits induced by scopolamine,[6],reverses the performance deficits induced by scopolamine
same,"activity in 14-unit T-maze model, in words",[4],inferior to phenserine
same,mean errors per trial at each block of three trials,[4],reduced error performance compared to the SCOP group
same,mean errors per trial for 15 trials,[4],significantly (P<0.05) better performance than the SCOP group
same,ratio of alternation errors per trial to opportunities,[4],no significant effect
same,memory consolidation,[7],facilitates memory consolidation in mice
"CN1CC[C@@]2(C)c3cc(OC(=O)Nc4ccccc4)ccc3N(C)[C@@H]12 [phenserine, (-)-N-phenylcarbamoyl eseroline]",IC50,[8],24 ± 6 nM
same,activity of animals,[9],seemed less active than at other doses
same,behavior of animals,[9],very aggressive and difficult to handle
same,"peripheral cholinergic effects, such as salivation and diarrhea",[9],not noticed at any doses tested
same,side effects,[9],"chewing, grooming, and wet dog shakes"
same,toxic side effects without peripheral cholinergic inhibitors,[9],large doses can be administered without toxic side effects
same,IC50,[10],1300 ± 8.5 nM
same,AChE inhibition at 8 hours,plasma AChE; at 8 hours,43.0%
same,"AChE inhibition and its duration, in words","plasma AChE; rat, in vivo","long, steady state inhibition of AChE at very low and non-toxic doses"
same,AChE inhibition compared to physostigmine,"plasma AChE; rat, in vivo",dramatically higher inhibition of AChE at a lower dose
same,duration of high and relatively constant AChE inhibition,"plasma AChE; rat, in vivo",more than 8 hours
same,maximum AChE inhibition,"plasma AChE; rat, in vivo",73.5%
same,selectivity of anticholinesterase action (AChE vs BChE),[11],high selectivity of anticholinesterase action
same,LD50 (in words),[12],substantially higher than that of physostigmine itself
same,central tremor,[12],a slight central tremor is evident
same,toxicity or deaths,[12],have not been associated with toxicity or deaths
same,SCOP-induced learning impairment,[4],significantly attenuated the SCOP-induced learning impairment
same,alternation error ratio,[4],"only 10.0 and 1.5 mg/kg doses of phenserine improved alternation error performance at blocks 4 and 5 and block 5, respectively; also recorded: only the 10.0 and 1.5 mg/kg doses of phenserine reduced the ratio significantly at blocks 4 and 5 and block 5, respectively"
same,error performance,[4],all but the 7.5 mg/kg dose of phenserine significantly ameliorated error performance
same,error performance at blocks 4 and 5,[4],improved error performance at maze training blocks 4 and 5 except the 7.5 mg/kg dose
same,number of errors at block 4,[4],reduced significantly at block 4 by all but the 7.5 mg/kg dose
same,runtime,[4],"all but the 7.5 mg/kg dose of phenserine significantly ameliorated error performance, runtime"
same,shock duration,[4],"all but the 7.5 mg/kg dose of phenserine significantly ameliorated error performance, runtime, shock frequency and shock duration"
same,shock frequency,[4],"all but the 7.5 mg/kg dose of phenserine significantly ameliorated error performance, runtime, shock frequency"
same,therapeutic window,[4],wide therapeutic window
same,time after i.p. administration at which improvement of learning performance was observed,[4]; ip,more than 1 hour
CNC(=O)Oc1ccc2c(c1)[C@@]1(C)CCN(C)[C@H]1N2C [(+)-physostigmine],inhibition of cholinesterase,cholinesterase (ChE),negligible inhibition; also recorded: negligible ChE inhibitory activity
"Nc1c2c(nc3ccccc13)CCCC2 [THA, tetrahydroaminoacridine]",toxicity in Alzheimer's patients,[3],causes toxicity
